This is an account of results in PMC11096667 (Cell reports, 2024).

For one series, the system named is TRPM7. Conditions: cited from earlier work.
A further series relates to TRPM6. Conditions: cited from earlier work.
The series “cryo-EM structure” concerns the molecule itself. As to the kind of experiment: cryo-EM structure.

For the molecule `c1ccc2c(c1)CCC[C@H]2Nc1nc2ccccc2[nH]1` [NS8593], in the series with TRPM7, the “inhibition of TRPM7” value is “inhibits”. The “inhibition of TRPM6” value in the series on TRPM6 is “inhibits”. As for `N#Cc1ccc(COC[C@H]2O[C@@H](n3c(NCc4ccc(Cl)c(Cl)c4)nc4c(N)ncnc43)[C@H](O)[C@@H]2O)cc1` [VER155008], the “inhibition of TRPM7” value in the series on TRPM7 is “potent inhibitor”. Also, the “activity against TRPM6” value with TRPM6 is “inactive”.

B1: C-terminally truncated mouse TRPM7 (residues 1-1280) (domain or fragment, UniProt Q923J1 1-1280, looked up)
chain: MSQKSWIESTLTKRECVYIIPSSKDPHRCLPGCQICQQLVRCFCGRLVKQHACFTASLAMKYSDVKLGEHFNQAIEEWSVEKHTEQSPTDAYGVINFQGGSHSYRAKYVRLSYDTKPEIILQLLLKEWQMELPKLVISVHGGMQKFELHPRIKQLLGKGLIKAAVTTGAWILTGGVNTGVAKHVGDALKEHASRSSRKICTIGIAPWGVIENRNDLVGRDVVAPYQTLLNPLSKLNVLNNLHSHFILVDDGTVGKYGAEVRLRRELEKTINQQRIHARIGQGVPVVALIFEGGPNVILTVLEYLQESPPVPVVVCEGTGRAADLLAYIHKQTEEGGNLPDAAEPDIISTIKKTFNFGQSEAVHLFQTMMECMKKKELITVFHIGSEDHQDIDVAILTALLKGTNASAFDQLILTLAWDRVDIAKNHVFVYGQQWLVGSLEQAMLDALVMDRVSFVKLLIENGVSMHKFLTIPRLEELYNTKQGPTNPMLFHLIRDVKQGNLPPGYKITLIDIGLVIEYLMGGTYRCTYTRKRFRLIYNSLGGNNRRSGRNTSSSTPQLRKSHETFGNRADKKEKMRHNHFIKTAQPYRPKMDASMEEGKKKRTKDEIVDIDDPETKRFPYPLNELLIWACLMKRQVMARFLWQHGEESMAKALVACKIYRSMAYEAKQSDLVDDTSEELKQYSNDFGQLAVELLEQSFRQDETMAMKLLTYELKNWSNSTCLKLAVSSRLRPFVAHTCTQMLLSDMWMGRLNMRKNSWYKVILSILVPPAILMLEYKTKAEMSHIPQSQDAHQMTMEDSENNFHNITEEIPMEVFKEVKILDSSDGKNEMEIHIKSKKLPITRKFYAFYHAPIVKFWFNTLAYLGFLMLYTFVVLVKMEQLPSVQEWIVIAYIFTYAIEKVREVFMSEAGKISQKIKVWFSDYFNVSDTIAIISFFVGFGLRFGAKWNYINAYDNHVFVAGRLIYCLNIIFWYVRLLDFLAVNQQAGPYVMMIGKMVANMFYIVVIMALVLLSFGVPRKAILYPHEEPSWSLAKDIVFHPYWMIFGEVYAYEIDVCANDSTLPTICGPGTWLTPFLQAVYLFVQYIIMVNLLIAFFNNVYLQVKAISNIVWKYQRYHFIMAYHEKPVLPPPLIILSHIVSLFCCVCKRRKKDKTSDGPKLFLTEEDQKKLHDFEEQCVEMYFDEKDDKFNSGSEERIRVTFERVEQMSIQIKEVGDRVNYIKRSLQSLDSQIGHLQDLSALTVDTLKTLTAQKASEASKVHNEITRELSISKHLAQNLID
One may read the stoichiometry N as the number of molecules, sites or subunits per partner or assembly. In the case of B1, the “stoichiometry N” value in the series “cryo-EM structure” came out at 4.
